Reference: patent publication US9040565B2, “1H-benzimidazole-5-carboxamides as anti-inflammatory agents” (Orexo AB, priority 2008, dated 2015)

Molecular target: T1, recombinant human mPGES-1 (Homo sapiens, UniProt O14684)
T1 construct: made in house; host or cells: Rosetta E. coli (microsomal/membrane fraction)
T1 sequence (O14684 1-152): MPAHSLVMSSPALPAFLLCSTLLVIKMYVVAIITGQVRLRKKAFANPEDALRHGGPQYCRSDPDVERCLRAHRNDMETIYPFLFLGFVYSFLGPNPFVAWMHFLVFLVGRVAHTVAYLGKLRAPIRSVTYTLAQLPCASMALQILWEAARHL
Assay: mPGES-1 inhibition, HTRF detection of PGE2 (Biological Test)
Format: biochemical
Method: Microsomes from Rosetta E. coli bacteria expressing recombinant human mPGES-1 is dissolved in 0.1 M KPi pH 7.4 buffer containing 2.5 mM GSH. 50 μl of the enzyme is subsequently dispensed in a 384-well plate. 0.5 μl of the inhibitor dissolved in DMSO at is thereafter added to each well and incubated for 25 minutes at room temperature.
Subsequently, 2 μl of PGH2 dissolved in an appropriate solvent is added to each well and after one minute the acidified stop solution containing FeCl2 is added. 4 μl of the total volume is transferred to a separate plate and diluted 750-fold in two separate steps before HTRF detection of PGE2.
The HTRf detection is performed by the use of a commercially available kit from CisBio essentially according to the manufacturer's protocol. Briefly, 10 μl of the diluted sample is transferred to a white 384-well plate. 5 μl of d2 and 5 μl Eu3+-Cryptate labeled anti-PGE2 is added to each well containing samples by the use of a Multidrop. The plate is covered with a plastic self-adhesive film, centrifuged at 1200 rpm for 1 minute and subsequently stored at +4° C. over night.
After over night incubation the fluorescence is measured by the use of an appropriate microplate reader. The fluorescence of europium cryptate, and d2 are measured using the following excitation and emission wavelength, europium cryptate: λmax^ex=307 nm, λmax^em=620 nm and d2: λmax^ex=620 nm, λmax^em=665 nm), respectively. The extent of the specific FRET is measured as a ratio of the emission intensity at 665 nm vs. that at 620 nm. A standard curve using synthetic PGE2 is used to quantify the amount of PGE2 in unknown samples.

| Structure (SMILES) | inhibition at 10 µM [%] |
| --- | --- |
| Cc1cnccc1Nc1nc2cc(C(=O)Nc3ccc(Br)cc3)ccc2n1C [Example 567, N-(4-Bromophenyl)-1-methyl-2-(3-methylpyridin-4-ylamino)-1H-benzimidazole-5-carboxamide] | 80 |
| Cn1c(Nc2c(Cl)cncc2Cl)nc2cc(C(=O)NCc3ccccc3C(F)(F)F)c(OC3CCOC3)cc21 (stereo not drawn) [Example 665, 2-(3,5-Dichloropyridin-4-ylamino)-N-((2-trifluoromethyl-phen-1-yl)-methyl)-6-(tetrahydrofuran-3-yl-oxy)-1-methyl-1H-benzimidazole-5-carboxamide] | 99 |
| O=C(Nc1cc(C(F)F)c(F)cn1)c1cc2nc(Nc3c(Cl)cncc3Cl)[nH]c2cc1OCC(F)(F)F [Example 699] | 100 |
| CN(C)c1cc(C(F)(F)F)cc(NC(=O)c2cc3nc(Nc4c(Cl)cncc4Cl)[nH]c3cc2OCC(F)(F)F)n1 [Example 656, 2-(3,5-Dichloro-pyridin-4-yl-amino)-6-(2,2,2-trifluoroethoxy)-N-(6-dimethylamino-4-trifluoromethyl-pyridin-2-yl)-1H-benzimidazole-5-carboxamide] | 96 |
| Cn1c(Nc2c(Cl)cncc2Cl)nc2cc(C(=O)NC3CCC(C)(C)CC3)c(F)cc21 [Example 674, 2-(3,5-Dichloropyridin-4-ylamino)-N-(4,4-dimethyl-cyclohex-1-yl)-6-fluoro-1-methyl-1H-benzimidazole-5-carboxamide] | 100 |
| O=C(NCc1ncccc1C(F)(F)F)c1ccc2[nH]c(Nc3c(Cl)cncc3Cl)nc2c1 [Example 565, 2-(3,5-Dichloropyridin-4-ylamino)-N-((3-trifluoromethyl-pyridin-2-yl)methyl)-1H-benzimidazole-5-carboxamide] | 84 |
| CN1CCC(Oc2cc3c(cc2C(=O)Nc2ccc(Br)cc2)nc(Nc2c(Cl)cncc2Cl)n3C)C1 (stereo not drawn) [Example 662, 2-(3,5-Dichloropyridin-4-ylamino)-N-(4-bromophenyl)-6-(N-methyl-pyrrolidin-3-yl-oxy)-1-methyl-1H-benzimidazole-5-carboxamide] | 99 |
| CCOc1cc2c(cc1C(=O)NC1CCC(C)(C)CC1)nc(Nc1c(Cl)cncc1Cl)n2C [Example 670, 2-(3,5-Dichloropyridin-4-ylamino)-N-(4,4-dimethyl-cyclohexyl)-6-ethoxy-1-methyl-1H-benzimidazole-5-carboxamide] | 100 |
| O=C(Nc1ccc(Br)cc1)c1ccc2nc(Nc3c(Cl)cncc3Cl)[nH]c2c1 [Example 388, N-(4-Bromophenyl)-2-(3,5-dichloropyridin-4-ylamino)-1H-benzimidazole-5-carboxamide] | 100 |
